The results in this text go back to patent US4026857A, “Epoxy emulsion water-based coating” (priority 1975, dated 1977).

The nature of series [1]: Emulsion formation with different organic solvents. The class given is physicochemical. Conditions: 50 parts solvent, 100 parts epoxy resin, 14 parts surfactant, 150 parts deionized water. The protocol:
A series of emulsions were prepared using 100 parts of an epoxy resin (diglycidylether of bisphenol A) having an epoxy equivalent weight of 2,000-2,500, 50 parts of a solvent, 14 parts of surfactant having the formula [drawing 1] wherein a+ c is about 190-200, b is about 60-70, and average molecular weight is about 12,500, and 150 parts of deionized water. In each emulsion a different solvent was used. Each emulsion, as well as other emulsions whose formulations are described in this specification, was prepared using the following general procedure:
The epoxy resin was dissolved in the solvent by heating at 130° C. with agitation. The resin solution was then cooled to about 65° C. and placed in high speed dispersing equipment. The surfactant was added. (In formulations wherein the emulsion coating was to be baked, cross-linking catalyst and curing agent, as defined hereinafter, were also added at this point.) Part of the water (about 100 parts) was then slowly added under high speed agitation (approximately 2,000 ft./min. peripheral speed) to pass the inversion point. Thereupon the agitation speed was slowed down to about 1,000 ft./min. and the balance of the water was added.
In each emulsion, a different organic solvent was used. […] Each emulsion formed was applied, by wire wound bar application, to a test panel of lubricated electrolytic tinplated steel. […]

Series [2] in a line: Solubility of solvents in water and of water in solvents. The class given is physicochemical. To be noted: for Solubility, Solvent in H2 O: solvent in water; for Solubility, H2 O in Solvent: water in solvent.

On to `CC(C)CC(=O)CC(C)C` [diisobutyl ketone], for which, in series [1], the emulsion formation result is given as “an emulsion could not be formed”.
As to `COCCO` [Methyl Cellosolve], in series [2], the “Solubility, Solvent in H2 O” value is “.infin” and the “Solubility, H2 O in Solvent” value is “.infin”.
As to `CCCCCCOCCO` [Hexyl Cellosolve, 2-Hexoxyethanol], in series [2], the “Solubility, Solvent in H2 O” value came to 0.99 wt. % and the “Solubility, H2 O in Solvent” value was 18.8 wt. %.
With `OCCOCCOc1ccccc1` [diethylene glycol monophenyl ether], the emulsion formation entry in series [1] was “an emulsion could not be formed”.
Turning to `CCOCCO` [Ethyl Cellosolve], in series [2], the “Solubility, Solvent in H2 O” value is “.infin” and the “Solubility, H2 O in Solvent” value is reported as “.infin”.
